How the values were obtained:
[1] = tested on: control sera (pooled serum of ten healthy LUMC hospital workers; commercial negative donor pooled serum from the Dutch bloodbank); assay type: binding, human; parameters: Binding of Control serum LUMC to linear peptides / Binding of Control serum Blood-bank to linear peptides / Binding of Control serum LUMC to looped peptides / Binding of Control Serum Blood-Bank to Looped peptides / Binding of Control serum LUMC to linear peptides of the protein M of SARS-CoV Urbani / Binding of Control serum Blood-bank to linear peptides of the protein M of SARS-CoV Urbani / Binding of Control serum LUMC to looped peptides of the protein M of SARS-CoV Urbani / Binding of Control Serum Blood-Bank to Looped peptides of the protein M of SARS-CoV Urbani: unit not given here
[2] = tested on: rabbit serum obtained by immunizing a rabbit with the SARS-CoV strain Frankfurt 1; assay type: binding; parameters: Binding of a rabbit serum to linear peptides / Binding of a rabbit serum to looped peptides / Rabbit serum linear peptides / Rabbit serum looped peptides / Binding of a rabbit serum to linear peptides of protein N of SARS-CoV Urbani (Rabbit serum linear peptides) / Binding of a rabbit serum to looped/cyclic peptides of protein N of SARS-CoV Urbani (Rabbit serum looped peptides): unit not given here

Sequence	Binding of Control Serum Blood-Bank to Looped peptides [1]	Binding of Control serum Blood-bank to linear peptides [1]	Binding of Control serum LUMC to linear peptides [1]	Binding of Control serum LUMC to looped peptides [1]	Rabbit serum linear peptides [2]	Rabbit serum looped peptides [2]	Binding of a rabbit serum to linear peptides [2]	Binding of a rabbit serum to looped peptides [2]	also measured
LYHYQECVRGTTVLL	0.7	0.6	0.6	0.6	0.6	0.3	–	–	–
MDPIYDEPTTTTSVP	0.3	0.6	0.5	0.3	–	–	0.1	0.3	–
NGTITVEELKQLLEQ	–	–	–	–	–	–	–	–	Binding of Control Serum Blood-Bank to Looped peptides of the protein M of SARS-CoV Urbani [1]: 0.6; Binding of Control serum Blood-bank to linear peptides of the protein M of SARS-CoV Urbani [1]: 0.7; Binding of Control serum LUMC to linear peptides of the protein M of SARS-CoV Urbani [1]: 0.5; Binding of Control serum LUMC to looped peptides of the protein M of SARS-CoV Urbani [1]: 0.8; Recognition of the peptide by the rabbit serum [2]: recognized
NSKKTTKLVVILRIG	0.7	0.4	0.9	0.7	–	–	–	–	Recognition of the peptide by the rabbit serum [2]: recognized
NVSLVKPTVYVYSRV	0.7	0.6	0.5	0.8	–	–	0.5	0.3	–
NYKLNTDHAGSNDNI	–	–	–	–	0.5	0.0	–	–	Binding of Control Serum Blood-Bank to Looped peptides of the protein M of SARS-CoV Urbani [1]: 0.6; Binding of Control serum Blood-bank to linear peptides of the protein M of SARS-CoV Urbani [1]: 0.7; Binding of Control serum LUMC to linear peptides of the protein M of SARS-CoV Urbani [1]: 0.5; Binding of Control serum LUMC to looped peptides of the protein M of SARS-CoV Urbani [1]: 0.8
NYSELDDEEPMELDY	–	–	–	–	0.4	0.3	–	–	Binding of Control Serum Blood-Bank to Looped peptides of the protein X3 of SARS-CoV Urbani [1]: 0.8; Binding of Control serum Blood-bank to linear peptides of the protein X3 of SARS-CoV Urbani [1]: 0.9; Binding of Control serum LUMC to linear peptides of the protein X3 of SARS-CoV Urbani [1]: 0.9; Binding of Control serum LUMC to looped peptides of the protein X3 of SARS-CoV Urbani [1]: 0.9
PFHPLADNKFALTCT	0.9	0.7	0.8	0.9	0.4	0.4	–	–	–
PLADNKFALTCTSTH	0.6	0.8	0.5	0.7	1.1	0.0	–	–	–
PLTKKNYSELDDEEP	–	–	–	–	0.2	0.4	–	–	Binding of Control Serum Blood-Bank to Looped peptides of the protein X3 of SARS-CoV Urbani [1]: 0.8; Binding of Control serum Blood-bank to linear peptides of the protein X3 of SARS-CoV Urbani [1]: 0.8; Binding of Control serum LUMC to linear peptides of the protein X3 of SARS-CoV Urbani [1]: 0.9; Binding of Control serum LUMC to looped peptides of the protein X3 of SARS-CoV Urbani [1]: 0.8
PSGTYEGNSPFHPLA	0.8	0.9	0.7	0.9	0.5	0.5	–	–	–
PTVYVYSRVKNLNSS	1.1	0.8	0.5	0.8	–	–	0.7	0.7	–
QDPAGGALIARCWYL	0.8	0.7	0.3	0.6	0.5	0.9	–	–	–
QIGGYSEDRHSGVKD	0.3	0.3	0.5	0.4	–	–	0.1	0.5	–
QVLKTMSLYMAISPK	0.4	0.9	0.7	0.4	–	–	0.1	0.5	–
RHSGVKDYVVVHGYF	0.7	0.6	0.5	0.6	–	–	0.1	0.4	–
RIGTQVLKTMSLYMA	0.6	0.8	0.5	0.5	–	–	0.4	0.5	–
RQLFKPLTKKNYSEL	–	–	–	–	0.3	0.5	–	–	Binding of Control Serum Blood-Bank to Looped peptides of the protein X3 of SARS-CoV Urbani [1]: 0.9; Binding of Control serum Blood-bank to linear peptides of the protein X3 of SARS-CoV Urbani [1]: 0.9; Binding of Control serum LUMC to linear peptides of the protein X3 of SARS-CoV Urbani [1]: 0.8; Binding of Control serum LUMC to looped peptides of the protein X3 of SARS-CoV Urbani [1]: 0.7
RVKNLNSSEGVPDLL	0.7	1.0	1.0	1.0	–	–	0.8	0.6	–
SIVRQLFKPLTKKNY	–	–	–	–	0.3	0.4	–	–	Binding of Control Serum Blood-Bank to Looped peptides of the protein X3 of SARS-CoV Urbani [1]: 0.8; Binding of Control serum Blood-bank to linear peptides of the protein X3 of SARS-CoV Urbani [1]: 0.8; Binding of Control serum LUMC to linear peptides of the protein X3 of SARS-CoV Urbani [1]: 0.7; Binding of Control serum LUMC to looped peptides of the protein X3 of SARS-CoV Urbani [1]: 0.8
SLVKPTVYVYSRVKN	0.7	0.7	1.0	0.8	–	–	0.3	0.6	–
SSGVANPAMDPIYDE	0.7	0.5	0.5	0.7	–	–	0.1	0.6	–
SSIVRQLFKPLTKKN	–	–	–	–	0.4	0.5	–	–	Binding of Control Serum Blood-Bank to Looped peptides of the protein X3 of SARS-CoV Urbani [1]: 0.8; Binding of Control serum Blood-bank to linear peptides of the protein X3 of SARS-CoV Urbani [1]: 1.2; Binding of Control serum LUMC to linear peptides of the protein X3 of SARS-CoV Urbani [1]: 1.1; Binding of Control serum LUMC to looped peptides of the protein X3 of SARS-CoV Urbani [1]: 0.7
SYYKLGASQRVGTDS	–	–	–	–	0.4	0.3	–	–	Binding of Control Serum Blood-Bank to Looped peptides of the protein M of SARS-CoV Urbani [1]: 0.8; Binding of Control serum Blood-bank to linear peptides of the protein M of SARS-CoV Urbani [1]: 0.8; Binding of Control serum LUMC to linear peptides of the protein M of SARS-CoV Urbani [1]: 0.4; Binding of Control serum LUMC to looped peptides of the protein M of SARS-CoV Urbani [1]: 0.7
